Results published in ChEMBL document CHEMBL1201862, “PubChem BioAssay data set” (2004).
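Interpolation was linear, between the two tested concentrations surrounding the appropriate level; five concentrations were tested over 48 hours in 96-well plates. At the GI50, growth is halved.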 Activity calls are given as the source filed them. Rule as the data show it: active = GI50 up to about 1.1 µM and inactive = higher.

Legend:
Test in all cases: NCI anticancer screen, dose series, 48 h
OVCAR-4 = tested on: OVCAR-4
COLO 205 = tested on: COLO 205
SF-295 = tested on: SF-295
OVCAR-5 = tested on: OVCAR-5
NCI-H460 = tested on: NCI-H460
NCI-H23 = tested on: NCI-H23
U-251 = tested on: U-251
SW-620 = tested on: SW-620
DMS-114 = tested on: DMS-114
K562 = tested on: K562
UACC-62 = tested on: UACC-62
SK-MEL-5 = tested on: SK-MEL-5
SK-MEL-2 = tested on: SK-MEL-2
SNB-19 = tested on: SNB-19
HT-29 = tested on: HT-29
KM-20L2 = tested on: KM-20L2
HCT-116 = tested on: HCT-116
RPMI-8226 = tested on: RPMI-8226
HOP-18 = tested on: HOP-18
SF-268 = tested on: SF-268
ACHN = tested on: ACHN
IGROV-1 = tested on: IGROV-1
SNB-75 = tested on: SNB-75
HCC 2998 = tested on: HCC 2998
HCT-15 = tested on: HCT-15
A498 = tested on: A498
SK-MEL-28 = tested on: SK-MEL-28
SK-OV-3 = tested on: SK-OV-3
DMS-273 = tested on: DMS-273
MOLT-4 = tested on: MOLT-4
HOP-92 = tested on: HOP-92
KM12 = tested on: KM12
UO-31 = tested on: UO-31
UACC-257 = tested on: UACC-257
XF498 = tested on: XF498
SN12C = tested on: SN12C
OVCAR-8 = tested on: OVCAR-8
LOX IMVI = tested on: LOX IMVI
EKVX = tested on: EKVX
SNB-78 = tested on: SNB-78
NCI-H226 = tested on: NCI-H226
TK-10 = tested on: TK-10
CCRF-CEM = tested on: CCRF-CEM
HL-60 = tested on: HL-60
786-0 = tested on: 786-0
RXF 393 = tested on: RXF 393
HOP-62 = tested on: HOP-62
Malme-3M = tested on: Malme-3M
CAKI-1 = tested on: CAKI-1
M14 = tested on: M14
DLD-1 = tested on: DLD-1
M19-MEL = tested on: M19-MEL
OVCAR-3 = tested on: OVCAR-3
NCI-H522 = tested on: NCI-H522
A549 = tested on: A549
SF-539 = tested on: SF-539
SR = tested on: SR
MCF7 = tested on: MCF7
NCI/ADR-RES = tested on: NCI/ADR-RES

c1ccc(-c2[nH]c(-c3ccccc3)c(-c3cnccn3)c2-c2cnccn2)cc1
GI50 (OVCAR-4): > 100 µM (inactive) | GI50 (COLO 205): > 100 µM (inactive) | GI50 (SF-295): > 100 µM (inactive) | GI50 (OVCAR-5): > 100 µM (inactive) | GI50 (NCI-H460): > 100 µM (inactive) | GI50 (NCI-H23): > 100 µM (inactive) | GI50 (U-251): > 100 µM (inactive) | GI50 (SW-620): > 100 µM (inactive) | GI50 (DMS-114): > 100 µM (inactive) | GI50 (K562): > 100 µM (inactive) | GI50 (UACC-62): > 100 µM (inactive) | GI50 (SK-MEL-5): > 100 µM (inactive) | GI50 (SK-MEL-2): > 100 µM (inactive) | GI50 (SNB-19): > 100 µM (inactive) | GI50 (HT-29): 91.2 µM (inactive) | GI50 (KM-20L2): > 100 µM (inactive) | GI50 (HCT-116): > 100 µM (inactive) | GI50 (RPMI-8226): 82.6 µM (inactive) | GI50 (HOP-18): > 100 µM (inactive) | GI50 (SF-268): > 100 µM (inactive) | GI50 (ACHN): > 100 µM (inactive) | GI50 (IGROV-1): > 100 µM (inactive) | GI50 (SNB-75): 31.9 µM (inactive) | GI50 (HCC 2998): > 100 µM (inactive) | GI50 (HCT-15): > 100 µM | GI50 (A498): > 100 µM (inactive) | GI50 (SK-MEL-28): > 100 µM (inactive) | GI50 (SK-OV-3): > 100 µM (inactive) | GI50 (DMS-273): > 100 µM (inactive) | GI50 (MOLT-4): > 100 µM (inactive) | GI50 (HOP-92): > 100 µM (inactive) | GI50 (KM12): 30.3 µM (inactive) | GI50 (UO-31): > 100 µM (inactive) | GI50 (UACC-257): > 100 µM (inactive) | GI50 (XF498): 95.7 µM (inactive) | GI50 (SN12C): > 100 µM (inactive) | GI50 (OVCAR-8): > 100 µM (inactive) | GI50 (LOX IMVI): > 100 µM (inactive) | GI50 (EKVX): > 100 µM (inactive) | GI50 (SNB-78): > 100 µM (inactive) | GI50 (NCI-H226): > 100 µM (inactive) | GI50 (TK-10): > 100 µM (inactive) | GI50 (CCRF-CEM): > 100 µM (inactive) | GI50 (HL-60): > 100 µM (inactive) | GI50 (786-0): > 100 µM (inactive) | GI50 (RXF 393): > 100 µM (inactive) | GI50 (HOP-62): > 100 µM (inactive) | GI50 (Malme-3M): > 100 µM (inactive) | GI50 (CAKI-1): > 100 µM (inactive) | GI50 (M14): > 100 µM (inactive) | GI50 (DLD-1): > 100 µM (inactive) | GI50 (M19-MEL): > 100 µM (inactive) | GI50 (OVCAR-3): > 100 µM (inactive) | GI50 (NCI-H522): > 100 µM (inactive) | GI50 (A549): > 100 µM (inactive) | GI50 (SF-539): > 100 µM (inactive) | GI50 (SR): 82.8 µM (inactive)

CC1=NN(C(=O)c2ccccc2)C(=O)C1/N=N/c1ccccc1C(=O)O (centres undefined)
GI50 (OVCAR-4): 5.62 µM (inactive) | GI50 (COLO 205): > 72.6 µM (inactive) | GI50 (SF-295): 4.1 µM (inactive) | GI50 (OVCAR-5): > 73.1 µM (inactive) | GI50 (NCI-H460): 3.67 µM (inactive) | GI50 (NCI-H23): 3.81 µM (inactive) | GI50 (U-251): 4.79 µM (inactive) | GI50 (SW-620): 16.8 µM (inactive) | GI50 (DMS-114): 4.08 µM (inactive) | GI50 (K562): 2.54 µM (inactive) | GI50 (UACC-62): 3.1 µM (inactive) | GI50 (SK-MEL-5): 34 µM (inactive) | GI50 (SK-MEL-2): 6.21 µM (inactive) | GI50 (MCF7): 3.86 µM (inactive) | GI50 (SNB-19): 5.75 µM (inactive) | GI50 (HT-29): 52.1 µM (inactive) | GI50 (KM-20L2): 63.1 µM (inactive) | GI50 (HCT-116): 3.24 µM (inactive) | GI50 (RPMI-8226): 4.36 µM (inactive) | GI50 (HOP-18): 99.1 µM (inactive) | GI50 (SF-268): 9.79 µM (inactive) | GI50 (IGROV-1): 4.14 µM (inactive) | GI50 (SNB-75): 1.8 µM (inactive) | GI50 (HCC 2998): 19.8 µM (inactive) | GI50 (HCT-15): 4.85 µM | GI50 (A498): 5.47 µM (inactive) | GI50 (SK-MEL-28): 89.1 µM (inactive) | GI50 (SK-OV-3): > 25.2 µM (inactive) | GI50 (DMS-273): 3.05 µM (inactive) | GI50 (MOLT-4): 4.09 µM (inactive) | GI50 (HOP-92): 4.11 µM (inactive) | GI50 (KM12): 7.8 µM (inactive) | GI50 (UO-31): 3.75 µM (inactive) | GI50 (XF498): 2.72 µM (inactive) | GI50 (SN12C): 7.26 µM (inactive) | GI50 (NCI/ADR-RES): 4.76 µM (inactive) | GI50 (OVCAR-8): 7.87 µM (inactive) | GI50 (LOX IMVI): 11.5 µM (inactive) | GI50 (EKVX): > 100 µM (inactive) | GI50 (NCI-H226): 9.46 µM (inactive) | GI50 (CCRF-CEM): 3.81 µM (inactive) | GI50 (HL-60): 3.53 µM (inactive) | GI50 (RXF 393): 2.47 µM (inactive) | GI50 (HOP-62): 6.15 µM (inactive) | GI50 (Malme-3M): 10.9 µM (inactive) | GI50 (CAKI-1): 6.53 µM (inactive) | GI50 (DLD-1): 6.89 µM (inactive) | GI50 (M19-MEL): 5.92 µM (inactive) | GI50 (OVCAR-3): 4.71 µM (inactive) | GI50 (NCI-H522): 8.05 µM (inactive) | GI50 (A549): 3.77 µM (inactive) | GI50 (SF-539): 3.78 µM (inactive)
